Results from patent publication US20190021380A1 (priority 2014, published 2019).
Where a name gives a salt, the structure may show the parent alone. Read-outs that look alike come from different tables or passages of the source.

What was measured:
cat T1R1/T1R3 receptor = cat T1R1/T1R3 receptor (Felis catus, UniProt E3UMS2); assay: cell-based; conditions: for Max resp % of IMP: hek293 cells
Source text: (§1) HEK293 cells that stably express T1R3 and inducibly express T1R1 were exposed to nucleotide derivatives alone or in combination with one or more amino acids and/or one or more nucleotides to activate the umami receptor. Activation of the T1R1/T1R3 receptor was detected by a change in intracellular calcium levels using a calcium sensitive fluorescent dye and/or a luminescent reporter system. Cells that express T1R3 but not T1R1 were used as a control. A FLIPR® Tetra or a FlexStation® 3 was used for data capture.

T1R1/T1R3 receptor = T1R1/T1R3 receptor (Felis catus, UniProt E3UMS2); assay: cell-based; type: cell-based; conditions: for Max resp % of Ala +IMP (0.2 mM): relative to Ala; for Max resp ΔF/F +Alanine (20 mM) / Thres (mM) +Alanine (20 mM) / Max resp % of IMP +Alanine (20 mM): in the presence of 20 mM alanine; for Max resp % of IMP +Alanine (20 mM): relative to IMP; for activation of T1R1/T1R3 by the compound alone: in words
Source text: as §1, with “transmembrane compounds” for “nucleotide derivatives”, “dye.” for “dye and/or a luminescent reporter system.”
In each experiment, serial dilutions of up to 10 mM of the transmembrane compound were added to the T1R1/T1R3-expressing cells.

[1] = in the presence of 20 mM alanine, read-out: EC50-with Ala
[2] = EC50 (mM), + Alanine (20 mM), Table 15
[3] = EC50 (mM) +IMP (0.2 mM), in the presence of 0.2 mM IMP
[4] = compound alone in buffer, read-out: EC50 (mM) +buffer (alone)

Compound	Max resp ΔF/F +IMP (0.2 mM) (T1R1/T1R3 receptor; in the presence of 0.2 mM IMP)	Thres (mM) +IMP (0.2 mM) (T1R1/T1R3 receptor; in the presence of 0.2 mM IMP) [mM]	Max resp % of Ala +IMP (0.2 mM) (T1R1/T1R3 receptor; in the presence of 0.2 mM IMP) [%]	Max resp ΔF/F +Alanine (20 mM) (T1R1/T1R3 receptor)	Thres (mM) +Alanine (20 mM) (T1R1/T1R3 receptor) [mM]	Max resp % of IMP +Alanine (20 mM) (T1R1/T1R3 receptor) [%]	also measured
NC(=O)c1ncn(C2OC(COP(=O)(O)O)C(O)C2O)c1N (stereo not shown)							EC50 (cat T1R1/T1R3 receptor; EC50-with Ala (mM)): > 1 mM
Nc1ncnc2c1ncn2C1OC(COP(O)(O)=S)C(O)C1O (stereo not shown)							Activity (cat T1R1/T1R3 receptor): active; Thres (cat T1R1/T1R3 receptor): 0.003 mM; Max resp % of IMP (cat T1R1/T1R3 receptor): 128.4 % of IMP
NC1NC(=O)c2ncn([C@H]3O[C@@H](COP(=O)(O)O)[C@H](O)[C@@H]3O)c2N1 (stereo partly shown)							EC50 (cat T1R1/T1R3 receptor; [1]): 0.03 mM
O=C(Nc1ncnc2c1ncn2[C@@H]1O[C@H](COP(=O)(O)O)[C@@H](O)[C@H]1O)c1ccccc1							Thres (cat T1R1/T1R3 receptor): 0.3 mM; EC50 (cat T1R1/T1R3 receptor; [2]): > 1 mM; Max resp % of IMP (cat T1R1/T1R3 receptor): 105.6 % of IMP
O=P(O)(O)OCC1OC(n2cnc3c(Nc4ccccc4)ncnc32)C(O)C1O (stereo not shown)							EC50 (cat T1R1/T1R3 receptor; EC50-with Ala (mM), in the presence of 20 mM alanine): > 1 mM
O=c1ccn(C2OC(COP(=O)(O)N3CCOCC3)C(O)C2O)c(=O)[nH]1 (stereo not shown)							EC50 (cat T1R1/T1R3 receptor; [2]): > 3 mM
2′-, 3′-O—(N′-methylanthraniloyl)guanosine-5′-O-monophosphate							function as activators of T1R1/T1R3 (cat T1R1/T1R3 receptor; in the presence of alanine, in words): activators of T1R1/T1R3
O=C(Nc1ccccc1Br)N[C@@H]1c2ccccc2C[C@@H]1O (stereo in doubt) [1-(2-bromophenyl)-3-((1R,2S)-2-hydroxy-2,3-dihydro-1H-inden-1-yl)urea]	0.378	3	44.9	0.3	3	33.0	
Nc1ncnc2c1ccn2[C@H]1O[C@@H](COP(=O)(O)O)[C@H](O)[C@@H]1O (stereo in doubt) [7-Deazaadenosine-5′-O-monophosphate]							Thres (cat T1R1/T1R3 receptor): 0.188 mM
O=c1ccn([C@H]2O[C@@H](COP(=O)(O)O)[C@H](O)[C@@H]2O)c(=O)[nH]1 (stereo in doubt) [Uridine 5′-monophosphate disodium salt, reference compound]							Thres (cat T1R1/T1R3 receptor): 3.000 mM
O=c1ccn([C@H]2O[C@@H](COP(=O)(O)O)[C@H](O)[C@@H]2O)c(=O)[nH]1 (stereo in doubt) [Uridine 5′-monophosphate disodium salt]							EC50 (cat T1R1/T1R3 receptor; EC50-with Ala (mM)): > 30 mM
O=P(O)(O)OC[C@H]1O[C@@H](n2cnc3c2ncn2ccnc32)[C@H](O)[C@@H]1O [1,N6-Ethenoadenosine-5′-O-monophosphate]							Thres (cat T1R1/T1R3 receptor): 0.010 mM
O=C(CN1C(=O)C(=O)N(Cc2ccccc2)C1=O)c1ccccc1 [1-benzyl-3-(2-oxo-2-phenylethyl)imidazolidine-2,4,5-trione]	1.140	0.08	135.7	1.3	1	127.6	
CSc1ccc(-c2nnn(Cc3ccccn3)n2)cc1 [2-((5-(4-(methylthio)phenyl)-2H-tetrazol-2-yl)methyl)pyridine]	0.678	0.1575	80.7				
Nc1nc(Cl)c2ncn(C3OC(COP(=O)(O)O)C(O)C3O)c2n1 (stereo not shown) [2-amino-6-chloropurineriboside-5′-O-monophosphate]							Activity (cat T1R1/T1R3 receptor): active; Thres (cat T1R1/T1R3 receptor): 0.00013 mM; Threshold (cat T1R1/T1R3 receptor): 0.00013 mM
O=P(O)(O)OC[C@H]1O[C@@H](n2cnc3c2ncn2ccnc32)C[C@@H]1O [2′-Deoxy-1,N6-ethenoadenosine-5′-O-monophosphate]							Thres (cat T1R1/T1R3 receptor): 0.05 mM; EC50 (cat T1R1/T1R3 receptor; [1]): 0.2 mM

Compound	Max resp ΔF/F +IMP (0.2 mM) (T1R1/T1R3 receptor; in the presence of 0.2 mM IMP)	Thres (mM) +IMP (0.2 mM) (T1R1/T1R3 receptor; in the presence of 0.2 mM IMP) [mM]	Max resp % of Ala +IMP (0.2 mM) (T1R1/T1R3 receptor; in the presence of 0.2 mM IMP) [%]	Max resp ΔF/F +Alanine (20 mM) (T1R1/T1R3 receptor)	Thres (mM) +Alanine (20 mM) (T1R1/T1R3 receptor) [mM]	Max resp % of IMP +Alanine (20 mM) (T1R1/T1R3 receptor) [%]	also measured
CCC(CC)NC(=O)c1ccc(OC)c(OC)c1 [3,4-dimethoxy-N-(pentan-3-yl)benzamide]	0.9975	0.5	81.0	0.545	0.3	43.9	
CCC(CC)NC(=O)c1ccc(C)c(C)c1 [3,4-dimethyl-N-(pentan-3-yl)benzamide]	1.5475	0.525	125.7	1.2150	3	97.8	
COc1ccc(C(=O)NC(C)c2ccccc2)cc1C (stereo not shown) [4-methoxy-3-methyl-N-(1-phenylethyl)benzamide]	1.1775	0.35	95.6	0.51	3	41.0	
CCCC(C)NC(=O)c1ccc(OC)c(C)c1 (stereo not shown) [4-methoxy-3-methyl-N-(pentan-2-yl)benzamide]	1.5875	0.025	128.9	1.5650	0.050	126.0	
CCC(CC)NC(=O)c1ccc(Br)o1 [5-bromo-N-(pentan-3-yl)furan-2-carboxamide]	1.8425	0.3	149.6	1.575	1	126.8	
CCCC(C)NC(=O)/C=C/c1ccc(OC)c(OC)c1 (stereo not shown) [(E)-3-(3,4-dimethoxyphenyl)-N-(pentan-2-yl)acrylamide]	1.07	0.55	86.9	0.4375	1	35.2	EC50 (T1R1/T1R3 receptor): > 10 mM; EC50 (T1R1/T1R3 receptor; [3]): 2.2 mM; EC50 (T1R1/T1R3 receptor; [4]): > 10 mM
COc1ccc(/C=C/C(=O)NC2CCCCC2C)cc1 (stereo not shown) [(E)-3-(4-methoxyphenyl)-N-(2-methylcyclohexyl)acrylamide]	1.7725	0.3	144.0	0.785	3	63.2	
CCC(CC)NC(=O)/C=C/c1ccc(OC)cc1 [(E)-3-(4-methoxyphenyl)-N-(pentan-3-yl)acrylamide]	1.443	0.0375	171.7	0.7	0.148	64.1	
COC(=O)C(NC(=O)/C=C/c1cccs1)C(C)C (stereo not shown) [(E)-methyl 3-methyl-2-(3-(thiophen-2-yl)acrylamido)butanoate]	0.7375	1	59.9	0.1175	10	9.5	
O=C(NCCc1ccccc1)C(=O)NCc1cccnc1 [N1-phenethyl-N2-(pyridin-3-ylmethyl)oxalamide]	0.7625	0.1	61.9	0.3750	1	30.2	
CC1CCCC(NC(=O)c2ccc3c(c2)OCO3)C1C (stereo not shown) [N-(2,3-dimethylcyclohexyl)benzo[d][1,3]dioxole-5-carboxamide]	1.175	0.275	95.4	0.225	3	18.1	
COc1cc(C(=O)NC(C(N)=O)c2ccccc2)cc(Cl)c1OC (stereo not shown) [N-(2-amino-2-oxo-1-phenylethyl)-3-chloro-4,5-dimethoxybenzamide]	0.415	0.17	49.4				activation of T1R1/T1R3 by the compound alone (T1R1/T1R3 receptor): failed to activate T1R1/T1R3 alone
CCCC(CCC)C(=O)Nc1ccc2c(c1)OCO2 [N-(benzo[d][1,3]dioxol-5-yl)-2-propylpentanamide]	0.908	0.0675	108.0				activation of T1R1/T1R3 by the compound alone (T1R1/T1R3 receptor): agonist of T1R1/T1R3 alone
CCC(CC)NC(=O)c1ccc2c(c1)OCCO2 [N-(pentan-3-yl)-2,3-dihydrobenzo[b][1,4]dioxine-6-carboxamide]	0.8725	0.075	70.9	0.3125	0.3	25.2	
CCOC(=O)C(NC(=O)c1ccc2c(c1)OCO2)C(C)C (stereo not shown) [ethyl 2-(benzo[d][1,3]dioxole-5-carboxamido)-3-methylbutanoate]	0.65	1	52.8	0.3175	10	25.6	EC50 (T1R1/T1R3 receptor): > 10 mM; EC50 (T1R1/T1R3 receptor; [3]): > 3 mM; EC50 (T1R1/T1R3 receptor; [4]): > 10 mM
